The values that follow come from PMC4019507, “From Arylamine N-Acetyltransferase to Folate-Dependent Acetyl CoA Hydrolase: Impact of Folic Acid on the Activity of (HUMAN)NAT1 and Its Homologue (MOUSE)NAT2” (PLoS ONE, 2014).

Holding throughout (assay type): biochemical
Assay [1] has as its target T1, (MOUSE)NAT2, murine arylamine N-acetyltransferase Type 2 (Mus musculus, UniProt P50295).
T1 construct: pure recombinant
T1 sequence (P50295 1-290): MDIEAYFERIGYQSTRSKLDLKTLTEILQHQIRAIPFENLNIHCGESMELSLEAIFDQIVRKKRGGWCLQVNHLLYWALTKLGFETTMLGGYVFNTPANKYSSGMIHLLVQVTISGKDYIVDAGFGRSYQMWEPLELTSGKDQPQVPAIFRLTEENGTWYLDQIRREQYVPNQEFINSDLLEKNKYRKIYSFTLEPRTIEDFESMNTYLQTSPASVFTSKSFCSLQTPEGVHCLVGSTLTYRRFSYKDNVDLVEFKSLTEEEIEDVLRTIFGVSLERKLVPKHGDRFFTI
In words: folate concentration dependence of AcCoA hydrolysis (Michaelis-Menten fit); real-time 1H-NMR of turnover.

Assay [2] deals with T2, (HUMAN)NAT1, human arylamine N-acetyltransferase Type 1 (Homo sapiens, UniProt P18440).
T2 construct: pure recombinant
T2 sequence (P18440 1-290): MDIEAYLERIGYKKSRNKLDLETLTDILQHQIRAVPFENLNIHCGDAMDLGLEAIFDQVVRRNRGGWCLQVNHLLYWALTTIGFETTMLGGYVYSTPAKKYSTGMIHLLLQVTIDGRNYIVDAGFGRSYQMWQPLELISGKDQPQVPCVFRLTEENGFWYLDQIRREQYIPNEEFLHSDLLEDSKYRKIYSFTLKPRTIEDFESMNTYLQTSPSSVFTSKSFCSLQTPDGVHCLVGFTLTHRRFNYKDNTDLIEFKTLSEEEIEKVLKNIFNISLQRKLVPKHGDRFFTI
The assay can be described thus: folate concentration dependence of AcCoA hydrolysis (Michaelis-Menten fit); HPLC time course.

The target in assay [3] is T1, (MOUSE)NAT2, murine arylamine N-acetyltransferase Type 2. In words: real-time 1H-NMR and DTNB assay of hydrolysis to CoA and acetate.
Assay [4] addresses T2, (HUMAN)NAT1, human arylamine N-acetyltransferase Type 1. The assay can be described thus: HPLC time course of hydrolysis to CoA.
The target in assay [5] is T1, (MOUSE)NAT2, murine arylamine N-acetyltransferase Type 2. In words: DTNB colorimetric hydrolysis assay.
Assay [6] has the same target. In words: DTNB colorimetric assay of folate-dependent AcCoA hydrolysis, dose response. The text has this:
DTNB colorimetric assay of folate-dependent AcCoA hydrolysis, dose response on (MOUSE)NAT2, murine arylamine N-acetyltransferase Type 2 | its concentration dependence was characterised (Figure 6C).

Molecules are shown by their SMILES.

As to `Nc1nc2ncc(CNc3ccc(C(=O)N[C@@H](CCC(=O)O)C(=O)O)cc3)nc2c(=O)[nH]1` [folate], the Kd in assay [1] is approximately 71 µM; in assay [2], approximately 75 µM.

Take `CC(=O)SCCNC(=O)CCNC(=O)[C@H](O)C(C)(C)COP(=O)(O)OP(=O)(O)OC[C@H]1O[C@@H](n2cnc3c(N)ncnc32)[C@H](O)[C@@H]1OP(=O)(O)O` [acetyl Coenzyme A]: the “specific rate of hydrolysis to CoA and acetate” value in assay [3] amounted to 360 µM/s/mg. The “specific rate of hydrolysis to CoA” value in assay [4] is 583 µM/s/mg.

`CCC(=O)SCCNC(=O)CCNC(=O)[C@H](O)C(C)(C)COP(=O)(O)OP(=O)(O)OC[C@H]1O[C@@H](n2cnc3c(N)ncnc32)[C@H](O)[C@@H]1OP(=O)(O)O` [n-propionyl CoA]: in assay [5], the “specific acetyl-CoA hydrolysis rate” value is 290 µM/s/mg.

`Cc1cc(C)cc(NC2=C(NS(=O)(=O)c3ccccc3)C(=O)c3ccccc3C2=O)c1` [compound 1, naphthoquinone 1] came in with an IC50 in assay [6] of 0.14 µM.
